Measurements from patent US20230117034A1, “PYRAZOLOTRIAZINES” (Bayer Aktiengesellschaft, priority 2019, published 2023).
Read-outs that look alike come from different tables or passages of the source.

Assays:
CDK2/CycE = target: T1, CDK2/CycE (Homo sapiens, UniProt P24941); assay: CDK2/CycE kinase assay (TR-FRET, 2 mM ATP); format: biochemical; conditions: 2 mM ATP (high ATP); median; read-out: CDK2/CyclinE, 2 mM ATP (high ATP), IC50 (median)
T1 construct: purchased ProQinase GmbH (Freiburg, Germany); host or cells: insect cells (Sf9)
Method in brief: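 Biotin-peptide phosphorylation (0.75 µM substrate, 2 mM ATP final, 25 min, 22 °C) by Sf9-expressed GST-CDK2/GST-CycE, after a 15-min compound pre-binding step. Inhibition scaled between enzyme-free (100%) and uninhibited (0%) wells.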

[1] = target: T2, CDK12 (nuclear staining in CAL-120 cells) (Homo sapiens, UniProt Q9NYV4); assay: CDK12 nuclear protein level: immunofluorescence/high content analysis (CAL-120); format: cell-based; conditions: for DC50: CAL-120 cells, 24 h, immunofluorescence, 50% reduction of nuclear CDK12 staining intensity, median, read-out: CDK12 degradation IF, DC50- [mol/l] (median); for (IC50 CDK12 high ATP) to (Degradation DC50 CDK12) ratio: ratio of IC50 CDK12 high ATP kinase assay to DC50 CDK12 degradation (IF, CAL-120)
T2 construct: endogenous in cells; host or cells: CAL-120 human breast cancer cells (DSMZ ACC 459)
T2 sequence (Q9NYV4 whole entry): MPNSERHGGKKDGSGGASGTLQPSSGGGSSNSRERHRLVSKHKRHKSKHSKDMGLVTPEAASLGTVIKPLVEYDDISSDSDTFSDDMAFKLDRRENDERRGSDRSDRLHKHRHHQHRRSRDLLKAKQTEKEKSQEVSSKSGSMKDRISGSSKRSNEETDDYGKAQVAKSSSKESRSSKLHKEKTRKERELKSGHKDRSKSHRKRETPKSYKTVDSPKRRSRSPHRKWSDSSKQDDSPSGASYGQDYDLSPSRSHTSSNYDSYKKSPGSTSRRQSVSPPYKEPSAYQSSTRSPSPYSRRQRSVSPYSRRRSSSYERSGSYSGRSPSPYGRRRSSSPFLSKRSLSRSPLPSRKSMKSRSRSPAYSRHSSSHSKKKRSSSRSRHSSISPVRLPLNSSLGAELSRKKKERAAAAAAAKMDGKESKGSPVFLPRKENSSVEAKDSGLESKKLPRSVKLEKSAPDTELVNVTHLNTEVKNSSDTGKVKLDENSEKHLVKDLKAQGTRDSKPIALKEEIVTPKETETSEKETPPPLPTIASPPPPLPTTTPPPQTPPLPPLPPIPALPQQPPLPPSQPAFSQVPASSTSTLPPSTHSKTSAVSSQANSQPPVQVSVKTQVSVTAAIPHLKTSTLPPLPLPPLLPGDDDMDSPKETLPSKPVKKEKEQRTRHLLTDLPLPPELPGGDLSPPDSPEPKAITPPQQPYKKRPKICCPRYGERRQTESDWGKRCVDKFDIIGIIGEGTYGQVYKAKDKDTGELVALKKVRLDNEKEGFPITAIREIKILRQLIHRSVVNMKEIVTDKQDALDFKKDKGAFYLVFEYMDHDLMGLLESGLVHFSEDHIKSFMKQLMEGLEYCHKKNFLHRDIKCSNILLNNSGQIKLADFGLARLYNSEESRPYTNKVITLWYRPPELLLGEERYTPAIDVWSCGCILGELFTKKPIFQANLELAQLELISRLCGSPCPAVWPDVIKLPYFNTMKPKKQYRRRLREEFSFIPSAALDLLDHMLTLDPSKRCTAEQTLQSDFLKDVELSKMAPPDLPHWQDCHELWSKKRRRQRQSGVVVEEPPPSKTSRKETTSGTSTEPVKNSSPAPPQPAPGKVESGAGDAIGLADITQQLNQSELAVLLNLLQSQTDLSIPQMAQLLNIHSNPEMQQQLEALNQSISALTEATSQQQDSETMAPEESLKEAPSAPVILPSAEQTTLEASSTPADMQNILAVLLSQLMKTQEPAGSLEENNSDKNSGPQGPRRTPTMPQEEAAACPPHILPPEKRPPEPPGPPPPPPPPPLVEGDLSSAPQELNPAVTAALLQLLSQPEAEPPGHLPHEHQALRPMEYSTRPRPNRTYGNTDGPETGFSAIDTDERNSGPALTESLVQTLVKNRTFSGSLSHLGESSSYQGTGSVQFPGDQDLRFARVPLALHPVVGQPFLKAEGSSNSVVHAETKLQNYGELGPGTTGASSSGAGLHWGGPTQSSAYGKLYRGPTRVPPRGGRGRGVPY
T2 sequence (O75909 whole entry partner): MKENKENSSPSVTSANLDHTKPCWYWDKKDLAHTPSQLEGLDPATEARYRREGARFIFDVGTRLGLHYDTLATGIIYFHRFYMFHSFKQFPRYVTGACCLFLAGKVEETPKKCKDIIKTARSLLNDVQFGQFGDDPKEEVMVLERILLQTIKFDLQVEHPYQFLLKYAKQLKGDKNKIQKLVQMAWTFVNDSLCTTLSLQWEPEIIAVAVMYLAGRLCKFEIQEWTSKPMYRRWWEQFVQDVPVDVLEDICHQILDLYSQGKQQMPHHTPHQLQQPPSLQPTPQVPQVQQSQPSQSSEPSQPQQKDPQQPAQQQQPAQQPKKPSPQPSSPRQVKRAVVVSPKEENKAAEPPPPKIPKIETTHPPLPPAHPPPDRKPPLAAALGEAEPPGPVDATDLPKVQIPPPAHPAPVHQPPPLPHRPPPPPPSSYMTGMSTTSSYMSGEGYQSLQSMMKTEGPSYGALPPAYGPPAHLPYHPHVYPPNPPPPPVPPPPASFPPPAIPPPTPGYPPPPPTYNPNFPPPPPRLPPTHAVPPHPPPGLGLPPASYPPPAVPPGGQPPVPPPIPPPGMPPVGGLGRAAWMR
Method in brief: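 DC50 is the degrader concentration that halves nuclear CDK12 immunofluorescence relative to controls, measured by high-content imaging. CAL-120 cells were exposed to compound for 24 h at 37 °C before PFA fixation, and signal was normalized to DMSO and control wells.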

[2] = system: BRCA1 mRNA expression in MDA-MB-231 cells; assay: qRT-PCR assay: BRCA1 mRNA expression in MDA-MB-231; format: cell-based, human; conditions: Homo sapiens, median, read-out: RTqPCR-MDA-MB-231, IC50, BRCA1 (median)
Method in brief: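 Human breast cancer cells, 200,000/well, were treated with test agents for 24 h without interruption after a 24 h settling period. Gene expression came from qPCR on cDNA made from 600 ng RNA, relative to GAPDH.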

[3] = MDA-MB-231, Inhibition of BRCA1 mRNA expression in MDA-MB-231 cells

SMILES	IC50 (CDK2/CycE)	DC50 [1]	(IC50 CDK12 high ATP) to (Degradation DC50 CDK12) ratio [1]	IC50 [2, 3]	IC50 ([2]; Inhibition of BRCA1 mRNA expression in MDA-MB-231 cells)
CN(CC(C)(C)O)c1nc(NCc2nc3cc(F)c(Cl)cc3[nH]2)n2ncc(Br)c2n1 [Example 338, 1-[(8-bromo-4-{[(6-chloro-5-fluoro-1H-benzimidazol-2-yl)methyl]amino}pyrazolo[1,5-a][1,3,5]triazin-2-yl)(methyl)amino]-2-methylpropan-2-ol]	6.57 µM	0.894 nM	1320	1.3 nM	–
Fc1cc2nc(CNc3nc(N4CCOCC4)nc4c(Br)cnn34)[nH]c2cc1F [Example 341, 8-bromo-N-[(5,6-difluoro-1H-benzimidazol-2-yl)methyl]-2-(morpholin-4-yl)pyrazolo[1,5-a][1,3,5]triazin-4-amine]	9.36 µM	3.55 nM	624	5.13 nM	–
FC(F)(F)c1cnn2c(NCc3nc4cc(Cl)c(Cl)cc4[nH]3)nc(N3CCOCC3)nc12 [Example 332, N-[(5,6-dichloro-1H-benzimidazol-2-yl)methyl]-2-(morpholin-4-yl)-8-(trifluoromethyl)pyrazolo[1,5-a][1,3,5]triazin-4-amine]	> 20 µM	10.7 nM	18	3.78 nM	–
CC(C)c1cnn2c(NCc3ncc(-c4ccccc4)[nH]3)nc(N3CCN(C)CC3)nc12 [Example 31, 2-(4-methylpiperazin-1-yl)-N-[(5-phenyl-1H-imidazol-2-yl)methyl]-8-(propan-2-yl)pyrazolo[1,5-a][1,3,5]triazin-4-amine]	17.5 µM	19.7 nM	689	15 nM	–
CN1CCN(c2nc(NCc3nc4cc(F)c(Cl)cc4[nH]3)n3ncc(Br)c3n2)CC1 [Example 337, 8-bromo-N-[(6-chloro-5-fluoro-1H-benzimidazol-2-yl)methyl]-2-(4-methylpiperazin-1-yl)pyrazolo[1,5-a][1,3,5]triazin-4-amine]	17.8 µM	1.85 nM	4722	< 10 nM	–
Fc1cc2nc(CNc3nc(N4CC5CCC(C4)N5)nc4c(Br)cnn34)[nH]c2cc1Cl [Example 348, 8-bromo-N-[(6-chloro-5-fluoro-1H-benzimidazol-2-yl)methyl]-2-(3,8-diazabicyclo[3.2.1]octan-3-yl)pyrazolo[1,5-a][1,3,5]triazin-4-amine]	13.2 µM	5.3 nM	546	–	1.97 nM
Fc1c(Cl)ccc2[nH]c(CNc3nc(N4CCOCC4)nc4c(C5CC5)cnn34)nc12 [Example 370, N-[(5-chloro-4-fluoro-1H-benzimidazol-2-yl)methyl]-8-cyclopropyl-2-(morpholin-4-yl)pyrazolo[1,5-a][1,3,5]triazin-4-amine]	> 20 µM	2.19 nM	77	5.63 nM	–
Fc1c(Cl)ccc2[nH]c(CNc3nc(N4CC5CCC(C4)N5)nc4c(C5CC5)cnn34)nc12 [Example 379, N-[(5-chloro-4-fluoro-1H-benzimidazol-2-yl)methyl]-8-cyclopropyl-2-(3,8-diazabicyclo[3.2.1]octan-3-yl)pyrazolo[1,5-a][1,3,5]triazin-4-amine]	14.3 µM	4.35 nM	121	2.36 nM	–
Fc1cc(F)cc(-c2nnc(CNc3nc(N4CCOCC4)nc4c(C(F)(F)F)cnn34)[nH]2)c1 [Example 386, N-{[5-(3,5-difluorophenyl)-4H-1,2,4-triazol-3-yl]methyl}-2-(morpholin-4-yl)-8-(trifluoromethyl)pyrazolo[1,5-a][1,3,5]triazin-4-amine]	1.45 µM	9.83 nM	12	9.16 nM	–
Fc1cc2nc(CNc3nc(N4CCOCC4)nc4c(C(F)(F)F)cnn34)[nH]c2cc1F [Example 333, N-[(5,6-difluoro-1H-benzimidazol-2-yl)methyl]-2-(morpholin-4-yl)-8-(trifluoromethyl)pyrazolo[1,5-a][1,3,5]triazin-4-amine]	> 20 µM	2.31 nM	61	1.8 nM	–
Brc1cnn2c(NCc3nc4ccccc4[nH]3)nc(N3CC4CCC(C3)O4)nc12 [Example 351, N-[(1H-benzimidazol-2-yl)methyl]-8-bromo-2-(8-oxa-3-azabicyclo[3.2.1]octan-3-yl)pyrazolo[1,5-a][1,3,5]triazin-4-amine]	7.39 µM	24 nM	390	61.6 nM	–
